Numbers after ± are expanded uncertainties.
Columns and labels:
[1] = 101.33 kPa, Liquid; for viscosity: Capillary tube (Ostwald / Ubbelohde) method; for mass density: Vibrating tube method
[2] = refractive index (Na D-line) (dimensionless); settings: 101.33 kPa, Liquid, Standard Abbe refractometry

| viscosity ([1]; 293.15 K) [mPa·s] | mass density ([1]; 293.15 K) [kg/m3] | viscosity ([1]; 298.15 K) [mPa·s] | mass density ([1]; 298.15 K) [kg/m3] | viscosity ([1]; 303.15 K) [mPa·s] | mass density ([1]; 303.15 K) [kg/m3] | refractive index ([2]; 293.15 K) | refractive index ([2]; 298.15 K) | refractive index ([2]; 303.15 K) | SMILES |
| --- | --- | --- | --- | --- | --- | --- | --- | --- | --- |
| 7.106 ± 0.15 | 822.52 ± 0.24 | 5.966 ± 0.13 | 818.99 ± 0.24 | 4.841 ± 0.1 | 815.4 ± 0.24 | 1.42429 ± 0.00037 | 1.42227 ± 0.00037 | 1.42023 ± 0.00037 | CCCCCCCO [heptan-1-ol] |
| 14.52 ± 0.3 | 829.97 ± 0.24 | 11.82 ± 0.25 | 826.58 ± 0.24 | 9.738 ± 0.2 | 823.13 ± 0.24 | 1.43728 ± 0.00037 | 1.43531 ± 0.00037 | 1.43345 ± 0.00037 | CCCCCCCCCCO [decan-1-ol] |
| 2.142 ± 0.046 | 867.2 ± 0.24 | 1.909 ± 0.041 | 862.69 ± 0.24 | 1.699 ± 0.036 | 858.12 ± 0.24 | 1.45936 ± 0.00037 | 1.45694 ± 0.00037 | 1.45427 ± 0.00037 | NC1CCCCC1 [cyclohexylamine] |

Source: the NIST ThermoML archive (doi:10.1016/j.jct.2014.09.005)
